{"source": "patent US20150133512A1", "about": "“N-ARYLTRIAZOLE COMPOUNDS AS LPAR ANTAGONISTS” (Hoffmann-La Roche Inc,, priority 2012, published 2015)", "key": {"[1]": {"target": "T1, LPA3 (Homo sapiens, UniProt Q9UBY5)", "T1 sequence (Q9UBY5 1-353)": "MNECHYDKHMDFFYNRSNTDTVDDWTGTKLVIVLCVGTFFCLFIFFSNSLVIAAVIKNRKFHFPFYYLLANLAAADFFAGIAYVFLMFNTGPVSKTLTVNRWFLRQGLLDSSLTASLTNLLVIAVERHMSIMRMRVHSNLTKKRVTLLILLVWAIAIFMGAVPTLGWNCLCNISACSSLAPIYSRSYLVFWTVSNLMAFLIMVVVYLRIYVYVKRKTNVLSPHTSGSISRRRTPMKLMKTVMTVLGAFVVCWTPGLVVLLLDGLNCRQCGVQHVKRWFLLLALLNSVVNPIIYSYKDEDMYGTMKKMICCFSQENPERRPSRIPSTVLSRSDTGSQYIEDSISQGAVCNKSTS", "assay": "Calcium flux assay using FLIPR, LPA3 antagonist activity", "format": "cell-based", "conditions": "for IC50: antagonist activity", "experimental": "(§1) Calcium Flux Assay Using Fluorometric Imaging Plate Reader (FLIPR)\n(§2) Dye Loading and Assay: Loading Buffer (FLIPR Calcium-4, Molecular Devices) was prepared by dissolving the contents of one bottle into 100 mL Hank's Balanced Salt Solution containing 20 mM HEPES and 2.5 mM probenecid. Plates were loaded onto Biotek plate washer and growth media was removed and replaced with 20 μL of Hank's Balanced Salt Solution containing 20 mM HEPES and 2.5 mM probenecid, followed by 25 μL of Loading Buffer. The plates were then incubated for 30 minutes at 37° C.\nDuring the incubation, test compounds were prepared by adding 90 μL of HBSS/20 mM HEPES/0.1% BSA buffer to 2 μL of serially diluted compounds. To prepare serial dilutions, 10 mM stocks of compounds were prepared in 100% DMSO. The compound dilution plate was set up as follows: well #1 received 29 μL of stock compound and 31 μL DMSO; wells 2-10 received 40 μL of DMSO; mixed and transferred 20 μL of solution from well #1 into well #2; continued with 1:3 serial dilutions out 10 steps; transferred 2 μL of diluted compound into duplicate wells of 384 well “assay plate” and then added the 90 μL of buffer.\nAfter incubation, both the cell and “assay” plates were brought to the FLIPR and 20 μL of the diluted compounds were transferred to the cell plates by the FLIPR. Compound addition was monitored by FLIPR to detect any agonist activity of the compounds. Plates were then incubated for 30 minutes at room temperature protected from light. After the incubation, plates were returned to the FLIPR and 20 μL of 4.5× concentrated agonist was added to the cell plates. During the assay, fluorescence readings were taken simultaneously from all 384 wells of the cell plate every 1.5 seconds. Five readings were taken to establish a stable baseline, then 20 μL of sample was rapidly (30 μL/sec) and simultaneously added to each well of the cell plate. The fluorescence was continuously monitored before, during and after sample addition for a total elapsed time of 100 seconds. Responses (increase in peak fluorescence) in each well following agonist addition was determined. The initial fluorescence reading from each well, prior to ligand stimulation, was used as zero baseline value for the data from that well. The responses were expressed as % inhibition of the buffer control."}, "[2]": {"target": "human recombinant LPA1 Lysophospholipid receptor (Homo sapiens, UniProt Q92633)", "sequence (Q92633 whole entry)": "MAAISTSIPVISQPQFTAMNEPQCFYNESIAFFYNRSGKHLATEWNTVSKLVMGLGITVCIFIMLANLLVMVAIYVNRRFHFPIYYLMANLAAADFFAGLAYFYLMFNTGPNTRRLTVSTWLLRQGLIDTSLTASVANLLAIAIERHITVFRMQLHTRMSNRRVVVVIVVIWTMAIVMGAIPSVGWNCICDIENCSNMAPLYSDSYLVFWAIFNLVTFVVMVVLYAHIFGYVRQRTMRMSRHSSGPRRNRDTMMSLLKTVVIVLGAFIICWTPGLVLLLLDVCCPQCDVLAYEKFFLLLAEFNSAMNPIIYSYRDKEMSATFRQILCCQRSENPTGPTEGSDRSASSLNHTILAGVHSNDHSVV", "assay": "Calcium flux assay using FLIPR, LPA1 antagonist activity", "format": "cell-based", "conditions": "for IC50: ChemiScreen Calcium-optimized stable cell line, antagonist mode, inhibition of agonist-induced calcium flux", "experimental": "as §1\nCell Culture Conditions: The ChemiScreen Calcium-optimized stable cell line containing the human recombinant LPA1 Lysophospholipid receptor was purchased from Chemicon International, Inc./Millipore. The cells were cultured in DMEM-high glucose supplemented with 10% fetal bovine serum, 2 mM glutamine, 100 U/mL penicillin/100 μg/mL streptomycin, 1× non-essential amino acids, 10 mM HEPES and 0.25 mg/mL Geneticin. Cells were harvested with trypsin-EDTA and counted using ViaCount reagent. The cell suspension volume was adjusted to 2.0×10^5 cells/mL with complete growth media. Aliquots of 50 μL were dispensed into 384 well black/clear tissue culture treated plates (BD) and the microplates were placed in a 37° C. incubator overnight. The following day plates were used in the assay.\nas §2\nDuring the incubation, test compounds were prepared by adding 90 μL of HBSS/20 mM HEPES/0.1% BSA buffer to 2 μL of serially diluted compounds. To prepare serial dilutions, 10 mM stocks of compounds were prepared in 100% DMSO.\nAfter incubation, both the cell and “assay” plates were brought to the FLIPR and 20 μL of the diluted compounds were transferred to the cell plates by the FLIPR. Compound addition was monitored by FLIPR to detect any agonist activity of the compounds. Plates were then incubated for 30 minutes at room temperature protected from light. […] During the assay, fluorescence readings were taken simultaneously from all 384 wells of the cell plate every 1.5 seconds. Five readings were taken to establish a stable baseline, then 20 μL of sample was rapidly (30 μL/sec) and simultaneously added to each well of the cell plate. The fluorescence was continuously monitored before, during and after sample addition for a total elapsed time of 100 seconds. Responses (increase in peak fluorescence) in each well following agonist addition was determined. The initial fluorescence reading from each well, prior to ligand stimulation, was used as zero baseline value for the data from that well. The responses were expressed as % inhibition of the buffer control."}}, "data": [{"smiles": "CCc1nnn(-c2ccc(-c3ccc(C4(C(=O)O)CC4)cc3)cc2)c1NC(=O)O[C@H](C)c1cccc(C(F)(F)F)c1", "note": "[Example 19, 1-(4′-{4-Ethyl-5-[(R)-1-(3-trifluoromethyl-phenyl)-ethoxycarbonylamino]-[1,2,3]triazol-1-yl}-biphenyl-4-yl)-cyclopropanecarboxylic acid]", "values": [{"measurement": "IC50", "setting": "[1]", "result": 4.82, "unit": "µM"}, {"measurement": "IC50", "setting": "[2]", "result": 0.412, "unit": "µM"}]}, {"smiles": "CCc1nnn(-c2ccc(-c3ccc(CC(=O)O)cc3)cc2)c1NC(=O)O[C@H](C)c1cccc(C(F)(F)F)c1", "note": "[Example 20]", "values": [{"measurement": "inhibition at 30 µM", "setting": "[1]", "result": 72.5, "unit": "%"}, {"measurement": "IC50", "setting": "[1]", "result": 14.3, "unit": "µM"}, {"measurement": "inhibition at 30 µM", "setting": "[2]", "result": 58.3, "unit": "%"}, {"measurement": "IC50", "setting": "[2]", "result": 21.2, "unit": "µM"}]}, {"smiles": "C[C@@H](OC(=O)Nc1cnnn1-c1ccc(-c2ccc(C3(C(=O)O)CC3)cc2)cc1)c1ccccc1", "note": "[Example 21, 1-{4′-[5-((R)-1-Phenyl-ethoxycarbonylamino)-[1,2,3]triazol-1-yl]-biphenyl-4-yl}-cyclopropanecarboxylic acid]", "values": [{"measurement": "inhibition at 30 µM", "setting": "[1]", "result": 22, "unit": "%"}, {"measurement": "IC50", "setting": "[1]", "result": "> 30", "unit": "µM"}, {"measurement": "IC50", "setting": "[2]", "result": 0.036, "unit": "µM"}]}, {"smiles": "C[C@@H](OC(=O)Nc1cnnn1-c1ccc(-c2ccc(CC(=O)O)cc2)cc1)c1ccccc1", "note": "[Example 22, {4′-[5-((R)-1-Phenyl-ethoxycarbonylamino)-[1,2,3]triazol-1-yl]-biphenyl-4-yl}-acetic acid]", "values": [{"measurement": "IC50", "setting": "[1]", "result": "> 30", "unit": "µM"}, {"measurement": "IC50", "setting": "[2]", "result": "> 30", "unit": "µM"}]}, {"smiles": "Cc1nnn(-c2ccc(-c3ccc(C(C)(C)C(=O)O)cc3)cc2)c1NC(=O)O[C@H](C)c1ccccc1", "note": "[Example 23, 2-Methyl-2-{4′-[4-methyl-5-((R)-1-phenyl-ethoxycarbonylamino)-[1,2,3]triazol-1-yl]-biphenyl-4-yl}-propionic acid]", "values": [{"measurement": "IC50", "setting": "[1]", "result": "> 30", "unit": "µM"}, {"measurement": "inhibition at 30 µM", "setting": "[2]", "result": 80.9, "unit": "%"}, {"measurement": "IC50", "setting": "[2]", "result": 0.796, "unit": "µM"}]}, {"smiles": "Cc1nnn(-c2ccc(-c3cccc(C4(C(=O)O)CC4)c3)cc2)c1NC(=O)O[C@H](C)c1ccccc1", "note": "[Example 24, (R)-1-(4′-(4-Methyl-5-((1-phenylethoxy)carbonylamino)-1H-1,2,3-triazol-1-yl)biphenyl-3-yl)cyclopropanecarboxylic acid]", "values": [{"measurement": "IC50", "setting": "[1]", "result": "> 30", "unit": "µM"}, {"measurement": "IC50", "setting": "[2]", "result": "> 30", "unit": "µM"}]}, {"smiles": "Cc1nnn(-c2cccc(-c3ccc(C4(C(=O)O)CC4)cc3)c2)c1NC(=O)O[C@H](C)c1ccccc1", "note": "[Example 25, 1-{3′-[4-Methyl-5-((R)-1-phenyl-ethoxycarbonylamino)-[1,2,3]triazol-1-yl]-biphenyl-4-yl}-cyclopropanecarboxylic acid]", "values": [{"measurement": "IC50", "setting": "[1]", "result": "> 30", "unit": "µM"}, {"measurement": "IC50", "setting": "[2]", "result": "> 30", "unit": "µM"}]}, {"smiles": "Cc1nnn(-c2cccc(-c3ccc(CC(=O)O)cc3)c2)c1NC(=O)O[C@H](C)c1ccccc1", "note": "[Example 26, {3′-[4-Methyl-5-((R)-1-phenyl-ethoxycarbonylamino)-[1,2,3]triazol-1-yl]-biphenyl-4-yl}-acetic acid]", "values": [{"measurement": "IC50", "setting": "[1]", "result": "> 30", "unit": "µM"}, {"measurement": "IC50", "setting": "[2]", "result": "> 30", "unit": "µM"}]}, {"smiles": "Cc1nnn(-c2ccc(-c3ccccc3)cc2)c1NC(=O)O[C@H](C)c1ccccc1", "note": "[Example 27, (3-Biphenyl-4-yl-5-methyl-3H-[1,2,3]triazol-4-yl)-carbamic acid (R)-1-phenyl-ethyl ester]", "values": [{"measurement": "IC50", "setting": "[1]", "result": "> 30", "unit": "µM"}, {"measurement": "IC50", "setting": "[2]", "result": "> 30", "unit": "µM"}]}, {"smiles": "Cc1nnn(-c2ccc(-c3ccc(C#N)cc3)cc2)c1NC(=O)O[C@H](C)c1ccccc1", "note": "[Example 28, [3-(4′-Cyano-biphenyl-4-yl)-5-methyl-3H-[1,2,3]triazol-4-yl]-carbamic acid (R)-1-phenyl-ethyl ester]", "values": [{"measurement": "IC50", "setting": "[1]", "result": "> 30", "unit": "µM"}, {"measurement": "IC50", "setting": "[2]", "result": "> 30", "unit": "µM"}]}, {"smiles": "Cc1nnn(-c2ccc(-c3ccc(C4(C(=O)NS(C)(=O)=O)CC4)cc3)cc2)c1NC(=O)O[C@H](C)c1ccccc1", "note": "[Example 30, {3-[4′-(1-Methanesulfonylaminocarbonyl-cyclopropyl)-biphenyl-4-yl]-5-methyl-3H[1,2,3]triazol-4-yl}-carbamic acid (R)-1-phenyl-ethyl ester]", "values": [{"measurement": "IC50", "setting": "[1]", "result": "> 30", "unit": "µM"}, {"measurement": "IC50", "setting": "[2]", "result": 0.033, "unit": "µM"}]}, {"smiles": "C[C@@H](OC(=O)Nc1nncn1-c1ccc(-c2ccc(C3(C(=O)O)CC3)cc2)cc1)c1ccccc1", "note": "[Example 31, 1-{4′-[3-((R)-1-Phenyl-ethoxycarbonylamino)-[1,2,4]triazol-4-yl]-biphenyl-4-yl}-cyclopropanecarboxylic acid]", "values": [{"measurement": "IC50", "setting": "[1]", "result": "> 30", "unit": "µM"}, {"measurement": "inhibition at 30 µM", "setting": "[2]", "result": 11, "unit": "%"}, {"measurement": "IC50", "setting": "[2]", "result": "> 30", "unit": "µM"}]}, {"smiles": "C=CCC(C(=O)O)c1ccc(-c2ccc(-n3nnc(C)c3NC(=O)O[C@H](C)c3ccccc3)cc2)cc1", "note": "(stereo partly drawn) [Example 33, (R)-2-{4′-[4-Methyl-5-(-1-phenylethoxycarbonylamino)-[1,2,3]triazol-1-yl]-biphenyl-4-yl}-pent-4-enoic acid]", "values": [{"measurement": "IC50", "setting": "[1]", "result": "> 30", "unit": "µM"}, {"measurement": "IC50", "setting": "[2]", "result": 0.088, "unit": "µM"}]}, {"smiles": "Cc1nnn(-c2ccc(C3CCC(CC(=O)O)CC3)cc2)c1NC(=O)O[C@H](C)c1ccccc1", "note": "(stereo partly drawn) [Example 34, (R)-2-(4-(4-(4-Methyl-5-((1-phenylethoxy)carbonylamino)-1H-1,2,3-triazol-1-yl)phenyl)cyclohexyl)acetic acid]", "values": [{"measurement": "IC50", "setting": "[1]", "result": "> 30", "unit": "µM"}, {"measurement": "IC50", "setting": "[2]", "result": 9.48, "unit": "µM"}]}, {"smiles": "Cc1nnn(-c2ccc(-c3ccc(C4(C(=O)NS(C)(=O)=O)CC4)cc3)cc2)c1NC(=O)O[C@H](C)c1cccc(C(F)(F)F)c1", "note": "[Example 35, {3-[4′-(1-Methanesulfonylaminocarbonyl-cyclopropyl)-biphenyl-4-yl]-5-methyl-3H[1,2,3]triazol-4-yl}-carbamic acid (R)-1-(3-trifluoromethyl-phenyl)-ethyl ester]", "values": [{"measurement": "IC50", "setting": "[1]", "result": 5.74, "unit": "µM"}, {"measurement": "IC50", "setting": "[2]", "result": 4.53, "unit": "µM"}]}]}
